Experimental data published in patent US20240245711A1, “A 19-NOR C3,3-DISUBSTITUTED C21-N-PYRAZOLYL STEROID FOR THE TREATMENT OF MAJOR DEPRESSIVE DISORDER” (Sage Therapeutics, Inc., priority 2021, published 2024).
“And” between values parts separate entries of the source, which are not always exact repeats. Equal entries are not always repeated.

System: adult subjects with Major Depressive Disorder
Test: Phase 3 open-label 1-year study: HAM-D total score, response and remission
Format: in vivo, human
From the text: Secondary Objective: To assess the need for re-treatment with Compound (1) following initial treatment in adults with MDD currently experiencing an MDE over a 1-year period, and to assess the response of initial treatment and re-treatment(s) with Compound (1) following an initial 2-week treatment period in adults with MDD currently experiencing an MDE over a 1-year period.
Secondary Endpoints: The need for re-treatment with Compound (1) as assessed by: time to first re-treatment (Kaplan-Meier curves), number of subjects achieving the requirements for re-treatment, number of re-treatment cycles for each subject, the response of initial treatment and/or re-treatment as assessed by: change from baseline in the 17-item Hamilton Rating Scale for Depression (HAM-D) total score at the end of each 14-day treatment (initial and/or re-treatment) period, HAM-D response at the end of each 14-day treatment (initial and/or re-treatment) period, defined as a ≥50% reduction in HAM-D score from baseline, HAM-D remission at the end of each 14-day treatment (initial and/or re-treatment) period, defined as HAM-D total score≤7, Clinical Global Impression-Improvement (CGI-I) response, defined as “much improved” or “very much improved”, at the end of each 14-day treatment (initial and/or re-treatment) period, change from baseline in Clinical Global Impression-Severity (CGI-S) score at the end of each 14-day treatment (initial and/or re-treatment) period.
Study Population: Subjects were 18-75 years old, diagnosed with major depressive disorder (MDD) with a MADRS total score of ≥28 and a HAM-D total score of ≥20 at Screening and Day 1 (prior to dosing).
Treatment Groups: The 30 mg and 50 mg dose groups were separated by time of enrollment. The study is comprised of two cohorts: one with Compound (1) 30 mg as a starting dose (30 mg Cohort: n=725), an initial cohort with Compound (1) 50 mg as a starting dose (50 mg Cohort: n=199). A patient receiving Compound (1) 30 mg could be dose reduced to 20 mg and patients receiving Compound (1) 50 mg could be dose reduced to 40 mg (based on tolerability). In all cohorts, Compound (1) is self-administered by patients as an oral therapy once nightly with food for 14 days.
Eligible subjects were given Compound (1)—to be taken at home in the evening with meal.
The cohorts pertaining to the different doses that the subjects received were defined as following: • 50 mg cohort: This cohort includes subjects who have initiated treatment with 50 mg and received re-treatment with 50 mg only. • 30 mg cohort: This cohort includes subjects who have initiated treatment with 30 mg regardless of the dose they have received in re-treatments. • Low dose cohort: This cohort includes subjects who have initiated treatment with 30 mg and received re-treatment with 30 mg only. • Dose switch cohort: This cohort includes subjects who have received initial treatment with 30 mg and at least one subsequent re-treatment with 50 mg. • Study Period X: starts on the date of the first dose of Compound (1) in cycle X and goes up to one day prior to the first dose of the next cycle. In some embodiments, X is any number from 1 to 5. • Treatment Period X: starts on the date of the first dose of Compound (1) in cycle X and goes up to one day after the last dose in cycle X. In some embodiments, X is any number from 1 to 5. • Treatment Cycle X: starts on the date of the first dose of Compound (1) in cycle X and goes up to 14 days after the last dose in cycle X. The treatment cycles may be denoted as C1-C5. • Observation period X: starts the day after Treatment Cycle X ends and goes up to one day prior to the start of next treatment cycle. In some embodiments, X is any number from 1 to 5.
Analysis Sets: The safety set was defined as all subjects who were administered study drug. The period-specific safety set includes subjects in the safety set who were administered study drug in the corresponding treatment cycle. […]

[1] = Study Period 1, safety set, 30 mg Cohort (N = 725), Day 126
[2] = Study Period 1, safety set, 50 mg Cohort (N = 199), Day 8
[3] = Study Period 1, safety set, 50 mg Cohort (N = 199), Day 15
[4] = Study Period 1, safety set, 50 mg Cohort (N = 199), Day 28
[5] = Study Period 1, safety set, 50 mg Cohort (N = 199), Day 70
[6] = Study Period 1, safety set, 50 mg Cohort (N = 199), Day 126
[7] = baseline HAM-D score ≥24, Study Period 1, 30 mg Cohort (N = 458), Day 8
[8] = baseline HAM-D score ≥24, Study Period 1, 30 mg Cohort (N = 458), Day 15
[9] = baseline HAM-D score ≥24, Study Period 1, 30 mg Cohort (N = 458), Day 28
[10] = baseline HAM-D score ≥24, Study Period 1, 30 mg Cohort (N = 458), Day 70
[11] = baseline HAM-D score ≥24, Study Period 1, 30 mg Cohort (N = 458), Day 126
[12] = baseline HAM-D score ≥24, Study Period 1, 50 mg Cohort (N = 127), Day 8
[13] = baseline HAM-D score ≥24, Study Period 1, 50 mg Cohort (N = 127), Day 15

C[C@@]1(O)CC[C@H]2[C@H](CC[C@@H]3[C@@H]2CC[C@]2(C)[C@@H](C(=O)Cn4cc(C#N)cn4)CC[C@@H]32)C1 [Compound (1), 1-(2-((3R,5R,8R,9R,10S,13S,14S,17S)-3-hydroxy-3,13-dimethylhexadecahydro-1H-cyclopenta[a]phenanthren-17-yl)-2-oxoethyl)-1H-pyrazole-4-carbonitrile]
HAM-D Response [1]: 144/203 (70.9%)
HAM-D total score, Mean % CFB ± SD [1]: −62.3 ± 30.36%
HAM-D total score, Mean CFB ± SD [1]: −15.7 ± 8.07
HAM-D Remission [2]: 37/193 (19.2%)
HAM-D Response [2]: 97/193 (50.3%)
HAM-D total score, Mean % CFB ± SD [2]: −49.2 ± 22.41%
HAM-D total score, Mean CFB ± SD [2]: −12.3 ± 5.79
HAM-D total score, Mean % CFB ± SD [3]: −63.6 ± 22.70%
HAM-D total score, Mean CFB ± SD [3]: −16±6.0 and −16.0±6.04
HAM-D Remission [4]: 72/191 (37.7%)
HAM-D Response [4]: 120/191 (62.8%)
HAM-D total score, Mean % CFB ± SD [4]: −58.3 ± 26.05%
HAM-D total score, Mean CFB ± SD [4]: −14.6 ± 6.75
HAM-D Remission [5]: 41/118 (34.7%)
HAM-D Response [5]: 69/118 (58.5%)
HAM-D total score, Mean % CFB ± SD [5]: −53.7 ± 28.40%
HAM-D total score, Mean CFB ± SD [5]: −13.6 ± 7.45
HAM-D Remission [6]: 19/30 (63.3%)
HAM-D Response [6]: 22/30 (73.3%)
HAM-D total score, Mean % CFB ± SD [6]: −65.2 ± 33.96%
HAM-D total score, Mean CFB ± SD [6]: −16.3 ± 9.06
HAM-D Remission [7]: 70/446 (15.7%)
HAM-D Response [7]: 192/446 (43.0%)
HAM-D total score, Mean % CFB ± SD [7]: −43.3 ± 25.63%
HAM-D total score, Mean CFB ± SD [7]: −12.0 ± 7.17
HAM-D Remission [8]: 164 (37.9%) and 164/433 (37.9%)
HAM-D Response [8]: 319 (73.7%) and 319/433 (73.7%)
HAM-D total score, Mean % CFB ± SD [8]: −60.9 ± 25.50%
HAM-D total score, Mean CFB ± SD [8]: −16.9 ± 7.34
HAM-D Remission [9]: 132/431 (30.6%)
HAM-D Response [9]: 250/431 (58.0%)
HAM-D total score, Mean % CFB ± SD [9]: −53.9 ± 28.59%
HAM-D total score, Mean CFB ± SD [9]: −15.0 ± 8.27
HAM-D Remission [10]: 70/247 (28.3%)
HAM-D Response [10]: 125/247 (50.6%)
HAM-D total score, Mean % CFB ± SD [10]: −49.2 ± 32.86%
HAM-D total score, Mean CFB ± SD [10]: −13.8 ± 9.39
HAM-D Remission [11]: 58/120 (48.3%)
HAM-D Response [11]: 90/120 (75.0%)
HAM-D total score, Mean % CFB ± SD [11]: −66.0 ± 28.29%
HAM-D total score, Mean CFB ± SD [11]: −18.2 ± 7.88
HAM-D Remission [12]: 18/122 (14.8%)
HAM-D Response [12]: 61/122 (50.0%)
HAM-D total score, Mean % CFB ± SD [12]: −49.3 ± 21.32%
HAM-D total score, Mean CFB ± SD [12]: −13.3 ± 5.87
HAM-D Remission [13]: 44 (37.3%) and 44/118 (37.3%)
HAM-D Response [13]: 94 (79.7%) and 94/118 (79.7%)
HAM-D total score, Mean % CFB ± SD [13]: −64.1 ± 21.73%
HAM-D total score, Mean CFB ± SD [13]: −17.4 ± 6.05
HAM-D Remission (baseline HAM-D score ≥24, Study Period 1, 50 mg Cohort (N = 127), Day 28): 41/120 (34.2%)
